US8163909B2, “Substituted hydroxyethyl amine compounds as beta-secretase modulators and methods of use” (Amgen Inc., priority 2007, dated 2012)
Where two headings read alike, the source gives them in different places.

How the values were obtained:
[1] = Microsomal stability assay, rat liver microsomes;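 also: rat liver microsomes (0.25 mg/mL) with about 1 µM compound plus 1 mM NADPH, pH 7.4, 37 °C for 30 min, parent left measured by LC-MS/MS against 0 min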
[2] = system: Aβ40 in conditioned medium of cells stably expressing Amyloid Precursor Protein (APP); assay: In vitro BACE cell-based assay (Aβ40 in conditioned medium, sandwich ELISA); conditions: Homo sapiens;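 also: compounds added as a dilution series, secreted peptide quantified by europium time-resolved fluorescence readout, potency fitted from percent of control versus compound concentration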
CYP3A4 (CYP3A) = CYP3A4 (CYP3A) (Homo sapiens, UniProt P08684); assay: in vitro; conditions: microsomes, pH 7.4;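 also: inhibition of CYP3A-mediated 1-hydroxymidazolam formation after 10 min incubation with NADPH, quantified by HPLC MS relative to metabolite produced without test compound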
CYP2D6 = CYP2D6 (Homo sapiens, UniProt P10635); assay: CYP2D6 inhibition assay (bufuralol, pooled human liver microsomes)
[3] = target: Beta Secretase enzyme (BACE) (Homo sapiens, UniProt P56817); assay: In vitro enzymatic BACE FRET (fluorescence resonance energy transfer) assay; assay type: biochemical;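 also: fluorescence read after 1 h with 50 nM quenched peptide substrate spanning the BACE cleavage site, in pH 4.2 acetate buffer containing 10% DMSO and nonionic detergent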
[4] = Microsomal stability assay, human liver microsomes;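 also: pooled human liver microsomes at 0.25 mg/mL with 1 µM compound and NADPH at 37 °C, pH 7.4, for 30 min, unchanged parent quantified by LC-MS/MS against the 0 min sample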
[5] = HEK293, HEK cell-based assay, IC50's in uM, read-out: HEK cell assay
[6] = 2D6 IC50 (uM), CYP enzyme inhibition
[7] = BACE enzyme assay, IC50's in uM, read-out: BACE1 FRET assay
[8] = HEK293, cell-based assay, HEK cells, IC50's in uM, read-out: HEK cell assay
[9] = 2D6 IC50, CYP enzyme inhibition
[10] = HEK293, HEK cells, read-out: HEK cell assay (IC50)
[11] = read-out: BACE1 FRET assay (IC50)
[12] = HEK293, HEK cell-based assay IC50, read-out: HEK cell assay
[13] = 2D6 IC50 (uM), CYP2D6 inhibition
[14] = BACE enzyme assay IC50, read-out: BACE1 FRET assay
[15] = HEK293, HEK cells, read-out: HEK cell assay
[16] = BACE enzyme assay, read-out: BACE1 FRET assay

CYP3A4 (CYP3A), sequence (P08684 2-503): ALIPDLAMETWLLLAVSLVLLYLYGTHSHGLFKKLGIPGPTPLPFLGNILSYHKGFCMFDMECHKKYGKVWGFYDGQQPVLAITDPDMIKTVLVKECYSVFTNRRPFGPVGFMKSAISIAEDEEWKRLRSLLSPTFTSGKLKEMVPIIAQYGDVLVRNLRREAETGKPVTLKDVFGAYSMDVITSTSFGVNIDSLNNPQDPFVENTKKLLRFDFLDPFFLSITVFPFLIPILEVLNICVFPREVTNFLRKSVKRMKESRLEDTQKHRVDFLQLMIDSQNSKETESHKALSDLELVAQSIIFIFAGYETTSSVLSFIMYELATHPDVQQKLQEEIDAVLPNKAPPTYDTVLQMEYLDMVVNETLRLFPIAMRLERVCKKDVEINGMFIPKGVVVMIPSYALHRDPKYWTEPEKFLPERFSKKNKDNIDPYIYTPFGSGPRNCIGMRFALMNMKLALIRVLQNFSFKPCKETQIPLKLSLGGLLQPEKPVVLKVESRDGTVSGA
CYP2D6, sequence (P10635 whole entry): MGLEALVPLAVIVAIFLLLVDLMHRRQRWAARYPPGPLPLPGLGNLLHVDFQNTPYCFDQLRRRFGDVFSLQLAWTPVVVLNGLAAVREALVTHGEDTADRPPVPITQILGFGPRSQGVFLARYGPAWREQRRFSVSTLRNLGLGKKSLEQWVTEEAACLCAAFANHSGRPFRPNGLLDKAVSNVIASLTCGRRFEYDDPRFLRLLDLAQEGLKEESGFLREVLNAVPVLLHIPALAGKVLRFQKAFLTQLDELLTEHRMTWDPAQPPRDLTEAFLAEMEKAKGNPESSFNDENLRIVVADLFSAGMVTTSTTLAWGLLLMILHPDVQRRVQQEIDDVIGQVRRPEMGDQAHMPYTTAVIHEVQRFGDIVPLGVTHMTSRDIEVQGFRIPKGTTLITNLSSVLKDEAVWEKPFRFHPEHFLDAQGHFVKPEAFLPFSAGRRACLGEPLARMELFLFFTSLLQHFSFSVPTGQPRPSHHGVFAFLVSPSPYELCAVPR
Beta Secretase enzyme (BACE), sequence (P56817 46-501): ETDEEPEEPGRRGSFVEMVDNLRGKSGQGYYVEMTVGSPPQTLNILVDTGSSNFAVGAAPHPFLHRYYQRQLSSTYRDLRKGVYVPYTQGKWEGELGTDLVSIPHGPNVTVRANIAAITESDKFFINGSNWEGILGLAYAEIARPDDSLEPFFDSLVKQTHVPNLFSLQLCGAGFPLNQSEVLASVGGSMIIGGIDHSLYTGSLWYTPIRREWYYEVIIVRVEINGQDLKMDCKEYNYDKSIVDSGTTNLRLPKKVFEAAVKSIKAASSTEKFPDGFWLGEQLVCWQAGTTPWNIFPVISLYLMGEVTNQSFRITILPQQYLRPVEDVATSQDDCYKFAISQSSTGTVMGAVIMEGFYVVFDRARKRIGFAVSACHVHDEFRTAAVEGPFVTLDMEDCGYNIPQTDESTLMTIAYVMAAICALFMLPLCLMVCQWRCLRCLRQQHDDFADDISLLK

| Structure (SMILES) | RLM ([1]; rat liver microsomal data) | IC50 (CYP3A4 (CYP3A)) | IC50 (CYP2D6; [6]) | IC50 [3, 7] | HLM ([4]; human liver microsomal data) | RLM ([1]; rat liver microsomes) | HLM ([4]; human liver microsomes) | other results |
| --- | --- | --- | --- | --- | --- | --- | --- | --- |
| CC#Cc1cccc(C[C@H](NC(=O)COC)[C@H](O)CN[C@H]2CC3(CCC3)Oc3ncc(CC(C)C)cc32)c1 [compound 802] | 191 µL/min/mg | 100 nM | 2.15 µM | 0.005 µM | 60.5 µL/min/mg |  |  | IC50 [2, 5]: 0.032 µM |
| CCOCC(=O)N[C@@H](Cc1cccc(-c2nccs2)c1)[C@H](O)CN[C@H]1CC2(CCC2)Oc2ncc([C@@H]3CC3(C)C)cc21 [compound 914, N-((1S,2R)-3-(((4′S)-6′-((1R)-2,2-dimethylcyclopropyl)-3′,4′-dihydrospiro[cyclobutane-1,2′-pyrano[2,3-b]pyridin]-4′-yl)amino)-2-hydroxy-1-(3-(1,3-thiazol-2-yl)benzyl)propyl)-2-ethoxyacetamide] | 61 µL/min/mg | 200 nM |  | 0.002 µM | 57 µL/min/mg |  |  | IC50 [2, 8]: 0.008 µM; IC50 (CYP2D6; [9]): 0.2 µM |
| CC(=O)N[C@@H](Cc1cccc(-c2cncs2)c1)[C@H](O)CN[C@H]1CC2(CCC2)Oc2ncc(CC(C)(C)C)cc21 [compound 658, N-((1S,2R)-3-(((4′S)-6′-(2,2-dimethylpropyl)-3′,4′-dihydrospiro[cyclobutane-1,2′-pyrano[2,3-b]pyridin]-4′-yl)amino)-2-hydroxy-1-(3-(1,3-thiazol-5-yl)benzyl)propyl)acetamide] |  | 100 nM |  |  |  | 120 µL/min/mg | 130 µL/min/mg | IC50 [2, 10]: 0.01 µM; IC50 (CYP2D6; 2D6 IC50, CYP2D6 inhibition): 0.3 µM; IC50 [3, 11]: 0.006 µM |
| CC(C)(C)CCC(=O)N[C@@H](Cc1ccccc1)[C@H](O)CN[C@H]1CC2(CCC2)Oc2ncc(CC(C)(C)C)cc21 [compound 819] | 543 µL/min/mg | 200 nM | 2 µM | 0.013 µM | 736 µL/min/mg |  |  | IC50 [2, 5]: 0.074 µM |
| CCC(=O)N[C@@H](Cc1ccc2c(c1)OCO2)[C@H](O)CN[C@H]1CC2(CCC2)Oc2ncc(CC(C)C)cc21 [compound 726, N-((1S,2R)-1-(1,3-benzodioxol-5-ylmethyl)-2-hydroxy-3-(((4′S)-6′-(2-methylpropyl)-3′,4′-dihydrospiro[cyclobutane-1,2′-pyrano[2,3-b]pyridin]-4′-yl)amino)propyl)propanamide] |  | ≤ 30 nM |  |  |  | 173 µL/min/mg | 34 µL/min/mg | IC50 [2, 12]: 0.048 µM; IC50 (CYP2D6; [13]): 1.4 µM; IC50 [3, 14]: 0.044 µM |
| CC(=O)N[C@@H](Cc1ccc(F)c(-c2ccco2)c1)[C@H](O)CN[C@H]1CC2(CCC2)Oc2ccc(CC(C)(C)C)cc21 [Example 432, N-((2S,3R)-4-((S)-2,2-spirocyclobutyl-6-neopentyl-3,4-dihydro-2H-chromen-4-ylamino)-1-(4-fluoro-3-(furan-2-yl)phenyl)-3-hydroxybutan-2-yl)acetamide] |  | 1500 nM |  |  |  | 323 µL/min/mg | 280 µL/min/mg | IC50 [2, 10]: 0.332 µM; IC50 (CYP2D6; 2D6 IC50, CYP2D6 inhibition): 3.1 µM; IC50 [3, 11]: 0.006 µM |
| COCC(=O)N[C@@H](Cc1cc(F)cc(F)c1)[C@H](O)CN[C@H]1CC2(CCC2)Oc2c(-c3ccccc3F)cc(CC(C)(C)C)cc21 [compound 487] | 387 µL/min/mg | 1600 nM | 21.4 µM |  | 394 µL/min/mg |  |  | IC50 [2, 15]: 0.118 µM; IC50 [3, 16]: 0.015 µM |
| CO[C@H](C)C(=O)N[C@@H](Cc1cc(F)cc(F)c1)[C@H](O)CN[C@H]1CC2(CCC2)Oc2c(-c3ccncc3)cc(Cl)cc21 [compound 561] | 426 µL/min/mg | 100 nM | 0.4 µM |  | 113 µL/min/mg |  |  | IC50 [2, 15]: 0.262 µM; IC50 [3, 16]: 0.092 µM |
| COCC(=O)N[C@@H](Cc1cc(Br)cc(Br)c1)[C@H](O)CN[C@H]1CC2(CCC2)Oc2ncc(CC(C)(C)C)cc21 [compound 892] | 274 µL/min/mg | 100 nM |  | 0.07 µM | 399 µL/min/mg |  |  | IC50 [2, 8]: 0.009 µM; IC50 (CYP2D6; [9]): 3.9 µM |
| COCC(=O)N[C@@H](Cc1cccc(F)c1)[C@H](O)CN[C@H]1CC2(CCC2)Oc2c(-c3ccnc(N(C)C)c3)cc(CC(C)(C)C)cc21 [Example 439, N-((1S,2R)-3-(((4S)-8-(2-(dimethylamino)-4-pyridinyl)-6-(2,2-dimethylpropyl)-3,4-dihydrospiro[chromene-2,1′-cyclobutan]-4-yl)amino)-1-(3-fluorobenzyl)-2-hydroxypropyl)-2-methoxyacetamide] |  | 1300 nM |  |  |  | 515 µL/min/mg | 601 µL/min/mg | IC50 [2, 12]: 0.005 µM; IC50 (CYP2D6; [13]): 4.1 µM; IC50 [3, 14]: 0.02 µM |
| COCC(=O)N[C@@H](Cc1cc(F)cc(-c2ccncc2)c1)[C@H](O)CN[C@H]1CC2(CCC2)Oc2ncc(CC(C)(C)C)cc21 [compound 613] |  | 160 nM |  |  |  | 142 µL/min/mg | 228 µL/min/mg | IC50 [2, 10]: 0.011 µM; IC50 (CYP2D6; 2D6 IC50, CYP2D6 inhibition): 0.3 µM; IC50 [3, 11]: 0.02 µM |
